Results as given in patent US20250197372A1 (priority 2020, published 2025).
Read-outs that look alike come from different tables or passages of the source.

Legend:
Type in all cases: biochemical
[1] = target: T1, recombinant alpha-glucosidase II (murine full-length glucosidase II, alpha and beta subunits, Glu 2) (Mus musculus, UniProt Q8BHN3); test: Alpha-glucosidase II assay (4-methylumbelliferyl-alpha-D-pyranoside substrate, fluorescence)
T1 construct: made in house; host or cells: HEK-293T cells transduced with BacMam viruses (75% alpha, 25% beta); protein harvested from culture supernatant
T1 sequence (O08795 15-521): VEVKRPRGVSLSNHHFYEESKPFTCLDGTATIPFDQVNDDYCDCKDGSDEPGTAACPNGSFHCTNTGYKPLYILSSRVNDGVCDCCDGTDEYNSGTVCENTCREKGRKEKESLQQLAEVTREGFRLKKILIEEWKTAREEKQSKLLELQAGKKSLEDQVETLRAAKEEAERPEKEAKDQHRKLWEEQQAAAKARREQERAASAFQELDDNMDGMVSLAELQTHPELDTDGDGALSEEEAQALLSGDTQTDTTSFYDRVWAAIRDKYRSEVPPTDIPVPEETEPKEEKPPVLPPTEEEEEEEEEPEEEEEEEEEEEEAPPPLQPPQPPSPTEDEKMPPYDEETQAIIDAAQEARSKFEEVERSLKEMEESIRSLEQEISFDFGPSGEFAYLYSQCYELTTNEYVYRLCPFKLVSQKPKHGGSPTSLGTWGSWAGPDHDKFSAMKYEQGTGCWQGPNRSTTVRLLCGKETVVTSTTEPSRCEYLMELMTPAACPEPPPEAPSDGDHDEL
T1 sequence (Q8BHN3 33-944): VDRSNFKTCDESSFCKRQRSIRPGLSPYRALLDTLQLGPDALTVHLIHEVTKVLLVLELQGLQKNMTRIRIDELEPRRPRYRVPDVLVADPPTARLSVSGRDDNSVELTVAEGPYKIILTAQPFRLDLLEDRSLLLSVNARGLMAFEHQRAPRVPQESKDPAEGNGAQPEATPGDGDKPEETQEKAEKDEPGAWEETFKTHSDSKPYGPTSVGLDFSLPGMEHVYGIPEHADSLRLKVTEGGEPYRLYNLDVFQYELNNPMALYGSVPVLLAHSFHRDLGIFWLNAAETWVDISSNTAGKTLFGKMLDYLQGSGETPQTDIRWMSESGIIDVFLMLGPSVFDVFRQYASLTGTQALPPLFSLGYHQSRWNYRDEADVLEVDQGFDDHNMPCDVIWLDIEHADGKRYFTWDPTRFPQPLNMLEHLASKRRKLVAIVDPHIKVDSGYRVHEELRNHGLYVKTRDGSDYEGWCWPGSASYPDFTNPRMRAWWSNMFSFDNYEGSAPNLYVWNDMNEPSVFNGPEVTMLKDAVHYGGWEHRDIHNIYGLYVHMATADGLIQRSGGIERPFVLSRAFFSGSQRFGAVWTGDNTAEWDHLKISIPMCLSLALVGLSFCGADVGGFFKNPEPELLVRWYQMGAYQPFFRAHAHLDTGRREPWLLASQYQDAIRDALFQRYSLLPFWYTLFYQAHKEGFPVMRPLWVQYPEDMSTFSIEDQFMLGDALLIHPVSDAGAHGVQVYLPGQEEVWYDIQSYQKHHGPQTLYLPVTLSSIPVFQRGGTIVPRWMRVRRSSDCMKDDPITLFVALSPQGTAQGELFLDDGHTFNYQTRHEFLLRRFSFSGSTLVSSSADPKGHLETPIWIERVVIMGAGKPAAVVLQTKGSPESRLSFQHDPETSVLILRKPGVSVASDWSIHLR

[2] = target: recombinant human GAA (acid alpha-glucosidase) (Homo sapiens, UniProt P10253); test: Acid alpha-glucosidase (GAA) assay (4-methylumbelliferyl-alpha-D-pyranoside substrate, fluorescence)
How it was run: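 IC50 from 4-PL curve fit of percent inhibition, based on fluorescence (365/440 nm) of released methylumbelliferone relative to uninhibited enzyme. Compound dilutions and human GAA incubated 60 min, 37 °C, before 20 min substrate reaction at 37 °C, quenched at pH 10.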

[3] = target: T2, recombinant human GBA (beta-glucocerebrosidase) (Homo sapiens, UniProt P04062); test: Beta-glucocerebrosidase (GBA, glucosylceramidase) assay (4-methylumbelliferyl-beta-D-pyranoside substrate, fluorescence)
T2 sequence (P04062 40-536): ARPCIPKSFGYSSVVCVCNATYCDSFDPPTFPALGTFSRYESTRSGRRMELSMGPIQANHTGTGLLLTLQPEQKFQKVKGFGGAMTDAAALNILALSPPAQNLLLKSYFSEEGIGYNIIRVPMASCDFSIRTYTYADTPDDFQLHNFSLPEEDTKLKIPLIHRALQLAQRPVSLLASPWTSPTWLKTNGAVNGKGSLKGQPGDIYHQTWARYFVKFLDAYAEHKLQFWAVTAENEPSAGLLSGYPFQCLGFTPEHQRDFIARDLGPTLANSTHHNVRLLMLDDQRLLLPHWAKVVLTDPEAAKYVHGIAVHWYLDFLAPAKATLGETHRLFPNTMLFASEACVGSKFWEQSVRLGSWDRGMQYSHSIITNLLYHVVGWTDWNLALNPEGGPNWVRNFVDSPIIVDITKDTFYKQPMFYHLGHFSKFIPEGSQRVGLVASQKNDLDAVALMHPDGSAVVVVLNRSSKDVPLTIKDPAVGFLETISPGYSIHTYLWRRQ
Description: Beta-glucocerebrosidase (GBA, also referred to glucosylceramidase): To analyze inhibitory effects of a test compound, commercially available recombinant human GBA was incubated with multiple dilutions of test compound for 60 minutes at 37° C. 4-methylumbelliferyl-beta-D-pyranoside was then introduced to the mixture as substrate. Following incubation for 60 minutes at 37° C., 1,4-methyllumbelliferone was generated, and the reaction was stopped with the stop solution (0.5 M glycine; 0.3 M NaOH, pH 10). 1,4-methyllumbelliferone was detected by fluorescence (excitation at 365 nm, emission at 440 nm). Relative fluorescence compared to untreated enzymatic activity and test compound concentration is then plotted as a function of percent inhibition. The IC50 was determined using a 4-PL curve fit as the measure of relative inhibitory activity of each test compound (see Table 3).

[4] = target: rat maltase (partially purified alpha-glucosidase from intestinal rat powder); test: Intestinal alpha-glucosidase assay, maltose substrate (Glucose GO Kit)
How it was run: (§1)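 First step: 60 min, 37 °C, compound with partially purified rat intestinal alpha-glucosidase. Next, maltose or sucrose for 30 min at 37 °C, ended at 90 °C for 5 min. Glucose quantified enzymatically; concentration–inhibition data fitted 4-PL for IC50.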

[5] = target: rat sucrase (partially purified alpha-glucosidase from intestinal rat powder) (Rattus norvegicus, UniProt P23739); test: Intestinal alpha-glucosidase assay, sucrose substrate (Glucose GO Kit)
Chain of rat sucrase (partially purified alpha-glucosidase from intestinal rat powder) (P23739 whole entry): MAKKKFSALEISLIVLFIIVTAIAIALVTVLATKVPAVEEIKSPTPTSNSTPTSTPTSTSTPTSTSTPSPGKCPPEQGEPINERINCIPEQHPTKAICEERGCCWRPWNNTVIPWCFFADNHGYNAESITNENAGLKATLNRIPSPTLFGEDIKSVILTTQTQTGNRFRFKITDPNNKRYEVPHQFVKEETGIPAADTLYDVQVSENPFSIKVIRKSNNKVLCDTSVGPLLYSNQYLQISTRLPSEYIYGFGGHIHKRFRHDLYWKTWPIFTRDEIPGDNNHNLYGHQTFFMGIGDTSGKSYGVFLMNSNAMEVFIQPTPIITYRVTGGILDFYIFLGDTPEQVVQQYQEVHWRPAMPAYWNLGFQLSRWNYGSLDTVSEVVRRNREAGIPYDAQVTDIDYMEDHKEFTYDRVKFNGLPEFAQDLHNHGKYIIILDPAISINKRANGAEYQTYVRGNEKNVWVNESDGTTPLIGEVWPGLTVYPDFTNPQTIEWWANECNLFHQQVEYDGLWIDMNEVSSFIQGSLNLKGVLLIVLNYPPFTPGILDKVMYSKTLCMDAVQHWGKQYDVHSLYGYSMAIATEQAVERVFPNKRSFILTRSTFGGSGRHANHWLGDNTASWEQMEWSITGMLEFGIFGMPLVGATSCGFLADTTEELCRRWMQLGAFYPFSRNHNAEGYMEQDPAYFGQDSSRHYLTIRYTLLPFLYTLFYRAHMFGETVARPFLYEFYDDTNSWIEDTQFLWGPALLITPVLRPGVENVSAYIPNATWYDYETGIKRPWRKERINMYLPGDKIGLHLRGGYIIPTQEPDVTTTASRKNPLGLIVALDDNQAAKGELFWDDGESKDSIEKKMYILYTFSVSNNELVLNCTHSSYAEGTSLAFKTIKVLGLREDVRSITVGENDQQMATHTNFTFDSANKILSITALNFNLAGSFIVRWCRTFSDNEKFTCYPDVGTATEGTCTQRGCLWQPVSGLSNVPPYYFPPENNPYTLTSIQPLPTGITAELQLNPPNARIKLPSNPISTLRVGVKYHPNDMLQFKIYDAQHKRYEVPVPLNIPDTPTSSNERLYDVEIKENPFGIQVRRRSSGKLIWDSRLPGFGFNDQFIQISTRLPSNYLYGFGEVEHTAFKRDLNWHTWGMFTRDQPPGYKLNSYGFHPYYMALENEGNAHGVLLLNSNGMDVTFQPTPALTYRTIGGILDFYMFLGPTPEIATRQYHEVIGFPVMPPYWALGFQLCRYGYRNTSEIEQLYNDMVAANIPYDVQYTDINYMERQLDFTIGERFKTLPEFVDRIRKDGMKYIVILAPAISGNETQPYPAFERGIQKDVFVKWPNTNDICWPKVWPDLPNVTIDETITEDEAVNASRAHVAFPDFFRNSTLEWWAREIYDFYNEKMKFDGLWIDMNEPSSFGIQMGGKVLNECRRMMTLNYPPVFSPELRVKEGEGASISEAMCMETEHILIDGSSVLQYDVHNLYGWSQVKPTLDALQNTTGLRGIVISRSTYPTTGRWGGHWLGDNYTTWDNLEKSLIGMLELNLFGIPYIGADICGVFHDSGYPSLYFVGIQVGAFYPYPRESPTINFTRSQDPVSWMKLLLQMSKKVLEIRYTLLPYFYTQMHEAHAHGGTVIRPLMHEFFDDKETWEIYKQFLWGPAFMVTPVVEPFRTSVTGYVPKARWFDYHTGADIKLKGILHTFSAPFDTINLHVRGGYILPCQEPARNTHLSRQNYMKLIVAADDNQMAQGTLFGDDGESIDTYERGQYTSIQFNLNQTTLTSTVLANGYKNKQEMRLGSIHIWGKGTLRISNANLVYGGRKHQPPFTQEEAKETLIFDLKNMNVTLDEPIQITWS
How it was run: as §1

[6] = Glucosidase 2, read-out: Glu2 IC50

SMILES | IC50 [1] [nM] | IC50 [2] [nM] | IC50 [3] [nM] | IC50 [4] [nM] | IC50 [5] [nM] | IC50 [1, 6] [nM]
O=[N+]([O-])c1cc(-c2ccccc2)ccc1NCCCCCCN1C[C@H](O)[C@@H](O)[C@H](O)[C@H]1CO [Compound 1138, (2R,3R,4R,5S)-2-(hydroxymethyl)-1-[6-({3-nitro-[1,1′-biphenyl]-4-yl}amino)hexyl]piperidine-3,4,5-triol] | 2 | < 1 | 18 | < 1 | < 1 | 
[N-]=[N+]=Nc1ccc(NCCc2cnn(CCN3C[C@H](O)[C@@H](O)[C@H](O)[C@H]3CO)c2)c([N+](=O)[O-])c1 [Compound 1191, (2R,3R,4R,5S)-1-[2-(4-{2-[(4-azido-2-nitrophenyl)amino]ethyl}-1H-pyrazol-1-yl)ethyl]-2-(hydroxymethyl)piperidine-3,4,5-triol] |  | 2740 | 28600 | 171 | 2010 | 20300
OC[C@@H]1[C@@H](O)[C@H](O)[C@@H](O)CN1Cc1ccc(CNc2ccc(N3CCOCC3)cc2)cc1 [Compound 1068] |  | 386 | > 100000 | 49 | 141 | 1580
CN(C)C(=O)c1cc(NCCCCCCN2C[C@H](O)[C@@H](O)[C@H](O)[C@H]2CO)cc(-c2ncccn2)c1 [Compound 1126, N,N-dimethyl-3-(pyrimidin-2-yl)-5-({6-[(2R,3R,4R,5S)-3,4,5-trihydroxy-2-(hydroxymethyl)piperidin-1-yl]hexyl}amino)benzamide] |  | 86 | 7040 | 23 | 13500 | 35
[N-]=[N+]=Nc1ccc(NCCc2ccc(CCN3C[C@H](O)[C@@H](O)[C@H](O)[C@H]3CO)cc2)c([N+](=O)[O-])c1 [Compound 1200, (2R,3R,4R,5S)-1-[2-(4-{2-[(4-azido-2-nitrophenyl)amino]ethyl}phenyl)ethyl]-2-(hydroxymethyl)piperidine-3,4,5-triol] |  | 1160 | 1450 | 81 | 746 | 6
[N-]=[N+]=Nc1ccc(NCCc2ccc(CCN3C[C@H](O)[C@@H](O)[C@H](O)[C@H]3CO)s2)c([N+](=O)[O-])c1 [Compound 1186, (2R,3R,4R,5S)-1-[2-(5-{2-[(4-azido-2-nitrophenyl)amino]ethyl}hiophen-2-yl)ethyl]-2-(hydroxymethyl)piperidine-3,4,5-triol] |  | 263 | 1280 | 5 | 175 | 1
OC[C@@H]1[C@@H](O)[C@H](O)[C@@H](O)CN1Cc1ccc(CNc2cc(-c3ncccn3)cc(C3CC3)c2)cc1 [Compound 1013, (2R,3R,4R,5S)-1-{[4-({[3-cyclopropyl-5-(pyrimidin-2-yl)phenyl]amino}methyl)phenyl]methyl}-2-(hydroxymethyl)piperidine-3,4,5-triol] |  | 254 | > 100000 | 5 | 26 | 153
COc1cc(NCCCCCCN2C[C@H](O)[C@@H](O)[C@H](O)[C@H]2CO)cc(C2=CCCCC2)c1 [Compound 1149, (2R,3R,4R,5S)-1-(6-{[3-(cyclohex-1-en-1-yl)-5-methoxy-phenyl]amino}hexyl)-2-(hydroxymethyl)piperidine-3,4,5-triol] |  | 66 | 56 | < 1 | < 1 | < 1
[N-]=[N+]=Nc1ccc(NCCc2cc(CCN3C[C@H](O)[C@@H](O)[C@H](O)[C@H]3CO)ccc2C2CCCCC2)c([N+](=O)[O-])c1 [Compound 1171, (2R,3R,4R,5S)-1-[2-(3-{2-[(4-azido-2-nitrophenyl)amino]ethyl}-4-cyclohexylphenyl)ethyl]-2-(hydroxymethyl)piperidine-3,4,5-triol] |  | 2080 | 204 | 5660 | 10700 | 1010
N#Cc1cc(NCCCCCCN2C[C@H](O)[C@@H](O)[C@H](O)[C@H]2CO)cc(-c2ncccn2)c1 [Compound 1130, 3-(pyrimidin-2-yl)-5-({6-[(2R,3R,4R,5S)-3,4,5-trihydroxy-2-(hydroxymethyl)piperidin-1-yl]hexyl}amino)benzonitrile] |  | 12 | 974 | 4 | 30 | 6
C[C@@H]1CN(c2ccc(NCc3ccc(CN4C[C@H](O)[C@@H](O)[C@H](O)[C@H]4CO)cc3)c([N+](=O)[O-])c2)C[C@H](C)O1 [Compound 1014] |  | 30 | > 100000 | 6 | 15 | 4
COc1cc(Cc2ccccc2)cc(NCCCCCCN2C[C@H](O)[C@@H](O)[C@H](O)[C@H]2CO)c1 [Compound 1145, (2R,3R,4R,5S)-1-{6-[(3-benzyl-5-methoxyphenyl)amino]hexyl}-2-(hydroxymethyl)piperidine-3,4,5-triol] |  | 60 | 458 | < 1 | 3 | < 1
COc1cc(-c2ncco2)ccc1NCCCCCCN1C[C@H](O)[C@@H](O)[C@H](O)[C@H]1CO [Compound 1207, (2R,3R,4R,5S)-2-(hydroxymethyl)-1-(6-{[2-methoxy-4-(1,3-oxazol-2-yl)phenyl]amino}hexyl)piperidine-3,4,5-triol] |  | 75 | 1680 | 7 | 71 | 14
COc1cc(NCCCCCCN2C[C@H](O)[C@@H](O)[C@H](O)[C@H]2CO)cc(-c2cnccn2)c1 [Compound 1197, (2R,3R,4R,5S)-2-(hydroxymethyl)-1-(6-{[3-methoxy-5-(pyrazin-2-yl)phenyl]amino}hexyl)piperidine-3,4,5-triol] |  | 37 | 2070 | 9 | 177 | 1
OC[C@@H]1[C@@H](O)[C@H](O)[C@@H](O)CN1CCc1ccc(CCNc2cc(Cl)cc(C3=COCCO3)c2)cc1 [Compound 1161, (2R,3R,4R,5S)-1-{2-[4-(2-{[3-chloro-5-(5,6-dihydro-1,4-dioxin-2-yl)phenyl]amino}ethyl)phenyl]ethyl}-2-(hydroxymethyl)piperidine-3,4,5-triol] |  | 84 | 2820 | 273 | 740 | 2
O=[N+]([O-])c1cc(C2CC2)ccc1NCCCCCCN1C[C@H](O)[C@@H](O)[C@H](O)[C@H]1CO [Compound 1136, (2R,3R,4R,5S)-1-{6-[(4-cyclopropyl-2-nitrophenyl)amino]hexyl}-2-(hydroxymethyl)piperidine-3,4,5-triol] |  | 9 | 37 | < 1 | < 1 | 1
CS(=O)(=O)c1cc(NCc2cccc(CN3C[C@H](O)[C@@H](O)[C@H](O)[C@H]3CO)c2)cc(-c2cccnn2)c1 [Compound 1040, (2R,3R,4R,5S)-2-(hydroxymethyl)-1-{[3-({[3-methanesulfonyl-5-(pyridazin-3-yl)phenyl]amino}methyl)phenyl]methyl}piperidine-3,4,5-triol] | 4610 | 1300 | > 100000 | 38 | 126 | 
O=[N+]([O-])c1cc(N2C3CCC2COC3)ccc1NCc1ccc(CN2CC(O)C(O)C(O)C2CO)cc1 (stereo in doubt) [Compound 1018, (2S,3S,4S,5R)-2-(hydroxymethyl)-1-({4-[({2-nitro-4-[(1R,5S)-3-oxa-8-azabicyclo[3.2.1]octan-8-yl]phenyl}amino)methyl]phenyl}methyl) piperidine-3,4,5-triol] | < 1 | 44 | > 100000 | < 1 | < 1 | 
